In general, Kd refers to the concentration at which binding is half-saturated.

From paper PMC13408523, “Psoralen and Seselin Stabilize the α-helix Structure in Lysozyme and Inhibit the α-helix to β-sheet Exchange: An Efficient Anti-Amyloidogenic Mechanism” (Advanced Pharmaceutical Bulletin, 2025) come the findings set out here.

For the assay, the target named is T1, hen egg white lysozyme (HEWL) (Gallus gallus, UniProt P00698).
T1 construct: gene LYZ
Put plainly: SPR (HEWL amine-coupled on CMD gold chip, […]°C); intrinsic fluorescence quenching. In kind it is binding.

Each structure is given as a SMILES string. Read-outs that look alike come from different tables or passages of the source.

T1 sequence (P00698 19-147): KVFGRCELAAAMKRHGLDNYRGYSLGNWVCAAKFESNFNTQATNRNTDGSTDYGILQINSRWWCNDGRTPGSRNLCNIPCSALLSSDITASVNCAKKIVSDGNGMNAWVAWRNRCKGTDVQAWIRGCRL

`O=c1ccc2cc3ccoc3cc2o1` [psoralen] had a Kd of 9.32 µM.
Turning to `CC1(C)C=Cc2c(ccc3ccc(=O)oc23)O1` [seselin], the Kd (read-out: Kd) was found to be 46.8 µM.
